Measurements published in the supplement of paper PMC10307832.

Experiments:
Assay in all cases: relative viability (nuclei count vs DMSO), 5 days (fraction); higher = more cells survive
BEN = test system: BEN
Method in brief: (§1)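 For relative viability, nuclei counts in treated wells were divided by those in vehicle wells. Lung cancer cell lines had been pin-tool dosed in 1536-well plates the day after seeding and cultured for 5 days, then fixed and stained in one step (final 0.05% Triton X-100, 1% formaldehyde, 1 ug/ml Hoechst) and imaged at 4×. Doses were one drug alone or a fixed anchor-drug dose plus five library-drug doses (not always all listed) in √10 steps, and values are duplicate-plate medians.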

EKVX = test system: EKVX
Method in brief: as §1

HARA = test system: HARA
Method in brief: as §1

HCC-366 = test system: HCC-366
Method in brief: as §1

HCC-44 = test system: HCC-44
Method in brief: as §1

HCC-827 = test system: HCC-827
Method in brief: as §1

LC-2-ad = test system: LC-2-ad
Method in brief: as §1

LOU-NH91 = test system: LOU-NH91
Method in brief: as §1

NCI-H1355 = test system: NCI-H1355
Method in brief: as §1

NCI-H1395 = test system: NCI-H1395
Method in brief: as §1

NCI-H1437 = test system: NCI-H1437
Method in brief: as §1

NCI-H1734 = test system: NCI-H1734
Method in brief: as §1

NCI-H1792 = test system: NCI-H1792
Method in brief: as §1

NCI-H2009 = test system: NCI-H2009
Method in brief: as §1

NCI-H2087 = test system: NCI-H2087
Method in brief: as §1

NCI-H2228 = test system: NCI-H2228
Method in brief: as §1

NCI-H2405 = test system: NCI-H2405
Method in brief: as §1

NCI-H596 = test system: NCI-H596
Method in brief: as §1

NCI-H647 = test system: NCI-H647
Method in brief: as §1

NCI-H661 = test system: NCI-H661
Method in brief: as §1

SK-LU-1 = test system: SK-LU-1
Method in brief: as §1

SK-MES-1 = test system: SK-MES-1
Method in brief: as §1

In the case of `CC(C)Oc1cc(Nc2nc(N[C@@H](C)c3ccc(F)cn3)ncc2Cl)n[nH]1` [AZ23] + C[C@]1(O)C[C@@H](c2nc(-c3ccc4ccc(-c5ccccc5)nc4c3)c3c(N)nccn32)C1 [Linsitinib] (partner 1 µM), the relative viability (BEN; first compound 0.01 µM) is reported as 1, the relative viability (BEN; first compound 0.03162 µM) is reported as 0.966 and the relative viability (BEN; first compound 0.3162 µM) is reported as 0.977. It also gave a relative viability (EKVX; first compound 0.01 µM) of 1.01, a relative viability (EKVX; first compound 0.03162 µM) of 1.22 and a relative viability (EKVX; first compound 0.3162 µM) of 0.969. The relative viability (HARA; first compound 0.01 µM) was 0.977, the relative viability (HARA; first compound 0.03162 µM) was 1.04 and the relative viability (HARA; first compound 0.3162 µM) was 0.854. It also gave a relative viability (HCC-366; first compound 0.01 µM) of 0.596, a relative viability (HCC-366; first compound 0.03162 µM) of 0.902 and a relative viability (HCC-366; first compound 0.3162 µM) of 0.56. The relative viability (HCC-44; first compound 0.01 µM) was 0.684, the relative viability (HCC-44; first compound 0.03162 µM) was 0.74 and the relative viability (HCC-44; first compound 0.3162 µM) was 0.632. The relative viability (HCC-827; first compound 0.01 µM) was 1, the relative viability (HCC-827; first compound 0.03162 µM) was 1.04 and the relative viability (HCC-827; first compound 0.3162 µM) was 0.93. It also gave a relative viability (LC-2-ad; first compound 0.01 µM) of 0.941, a relative viability (LC-2-ad; first compound 0.03162 µM) of 0.931 and a relative viability (LC-2-ad; first compound 0.3162 µM) of 0.851. The relative viability (LOU-NH91; first compound 0.01 µM) was 0.85, the relative viability (LOU-NH91; first compound 0.03162 µM) was 0.966 and the relative viability (LOU-NH91; first compound 0.3162 µM) was 0.917. The relative viability (NCI-H1355; first compound 0.01 µM) was 0.909, the relative viability (NCI-H1355; first compound 0.03162 µM) was 0.784 and the relative viability (NCI-H1355; first compound 0.3162 µM) was 0.724. The relative viability (NCI-H1395; first compound 0.03162 µM) was 1.09, the relative viability (NCI-H1395; first compound 0.3162 µM) was 0.975 and the relative viability (NCI-H1437; first compound 0.01 µM) was 1.07. It also gave a relative viability (NCI-H1437; first compound 0.03162 µM) of 1.18, a relative viability (NCI-H1437; first compound 0.3162 µM) of 1.28 and a relative viability (NCI-H1734; first compound 0.01 µM) of 0.921. It also gave a relative viability (NCI-H1734; first compound 0.03162 µM) of 0.814, a relative viability (NCI-H1734; first compound 0.3162 µM) of 0.894 and a relative viability (NCI-H1792; first compound 0.01 µM) of 0.565. For the same compound, the relative viability (NCI-H1792; first compound 0.03162 µM) was 0.597, the relative viability (NCI-H1792; first compound 0.3162 µM) was 0.61 and the relative viability (NCI-H2009; first compound 0.01 µM) was 1.17. The relative viability (NCI-H2009; first compound 0.03162 µM) was 1.25, the relative viability (NCI-H2009; first compound 0.3162 µM) was 1.18 and the relative viability (NCI-H2087; first compound 0.01 µM) was 1.34. The relative viability (NCI-H2087; first compound 0.03162 µM) was 1.06, the relative viability (NCI-H2087; first compound 0.3162 µM) was 0.955 and the relative viability (NCI-H2228; first compound 0.01 µM) was 0.828. For the same compound, the relative viability (NCI-H2228; first compound 0.03162 µM) was 0.727, the relative viability (NCI-H2228; first compound 0.3162 µM) was 0.473 and the relative viability (NCI-H2405; first compound 0.01 µM) was 0.976. The relative viability (NCI-H2405; first compound 0.03162 µM) was 0.902, the relative viability (NCI-H2405; first compound 0.3162 µM) was 0.873 and the relative viability (NCI-H596; first compound 0.01 µM) was 1.09. It also gave a relative viability (NCI-H596; first compound 0.03162 µM) of 1.18, a relative viability (NCI-H596; first compound 0.3162 µM) of 1 and a relative viability (NCI-H647; first compound 0.01 µM) of 1.48. For the same compound, the relative viability (NCI-H647; first compound 0.03162 µM) was 1.17, the relative viability (NCI-H647; first compound 0.3162 µM) was 1.26 and the relative viability (NCI-H661; first compound 0.01 µM) was 0.531. The relative viability (NCI-H661; first compound 0.03162 µM) was 0.776, the relative viability (NCI-H661; first compound 0.3162 µM) was 0.623 and the relative viability (SK-LU-1; first compound 0.01 µM) was 0.893. It also gave a relative viability (SK-LU-1; first compound 0.03162 µM) of 1.16, a relative viability (SK-LU-1; first compound 0.3162 µM) of 0.932 and a relative viability (SK-MES-1; first compound 0.01 µM) of 1.09. It also gave a relative viability (SK-MES-1; first compound 0.03162 µM) of 1.16 and a relative viability (SK-MES-1; first compound 0.3162 µM) of 1.12.
